In patent US7408067B2, “Aza-cyclic compounds as modulators of acetylcholine receptors” (Merck + Co., Inc., priority 2002, dated 2008):
Structures can show the parent of a compound that is named as a salt.

Row | SMILES | melting point [°C]
1 | CN1CCC(Sc2ccc3[nH]c(=O)[nH]c3c2)CC1 [Example 16, 5-[(1-methyl-4-piperidinyl)sulfanyl]-1,3-dihydro-2H-benzimidazol-2-one] | 213.8 to 214.7
2 | CN1CCC(Sc2cc3c(cc2Cl)[nH]c(=O)n3C)CC1 [Example 20, 5-Chloro-1-methyl-6-[(1-methyl-4-piperidinyl)sulfanyl]-1,3-dihydro-2H-benzimidazol-2-one] | 210.2 to 211.9
3 | CN1CCC(Sc2ccc3[nH]c(=O)[nH]c(=O)c3c2)CC1 [Example 17, 6-[(1-methyl-4-piperidinyl)sulfanyl]-2,4(1H,3H)-quinazolinedione] | > 260
4 | CN1CCC(Sc2ccc(N)cc2)CC1 (as salt: hydrochloride) [Example 5, 4-(1-methylpiperidin-4-yl)thiophenylamine] | 96 to 98
5 | CN1CCC(Sc2ccc3[nH]c(=O)n(C)c(=O)c3c2)CC1 [Example 21, 3-Methyl-6-[(1-methyl-4-piperidinyl)sulfanyl]-2,4(1H,3H)-quinazolinedione] | 200.8 to 202.6
6 | CN1CCC(Sc2ccc3[nH]c(=O)n(C)c3c2)CC1 [Example 18, 1-Methyl-6-[(1-methyl-4-piperidinyl)sulfanyl]-1,3-dihydro-2H-benzimidazol-2-one] | 196.4 to 197.6
7 | CC(=O)Nc1ccc(SC2CCN(C)CC2)cc1 (as salt: salt) [Example 7, N-{4-[(1-methylpiperidin-4-yl)thio]phenyl}acetamide] | 199 to 201
